# Measured values from PubChem BioAssay (NCI).
#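 How tested: cells in 96-well plates exposed to compound for 48 hours at five concentrations. GI50 = concentration required for 50% inhibition of growth. At the TGI there is no net growth.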
# Legend:
# Assay in all cases: NCI-60 cell line screen, 48 h
# 786-0 renal = tested on: 786-0 renal
# A498 renal = tested on: A498 renal
# A549 NSCLC = tested on: A549 NSCLC
# ACHN renal = tested on: ACHN renal
# BT-549 breast = tested on: BT-549 breast
# CAKI-1 renal = tested on: CAKI-1 renal
# CCRF-CEM leukemia = tested on: CCRF-CEM leukemia
# COLO 205 colon = tested on: COLO 205 colon
# DU-145 prostate = tested on: DU-145 prostate
# EKVX NSCLC = tested on: EKVX NSCLC
# HCC-2998 colon = tested on: HCC-2998 colon
# HCT-116 colon = tested on: HCT-116 colon
# HCT-15 colon = tested on: HCT-15 colon
# HL-60(TB) leukemia = tested on: HL-60(TB) leukemia
# HOP-62 NSCLC = tested on: HOP-62 NSCLC
# HOP-92 NSCLC = tested on: HOP-92 NSCLC
# HS 578T breast = tested on: HS 578T breast
# HT29 colon = tested on: HT29 colon
# IGROV1 ovarian = tested on: IGROV1 ovarian
# K-562 leukemia = tested on: K-562 leukemia
# KM12 colon = tested on: KM12 colon
# LOX IMVI melanoma = tested on: LOX IMVI melanoma
# M14 melanoma = tested on: M14 melanoma
# MALME-3M melanoma = tested on: MALME-3M melanoma
# MCF7 breast = tested on: MCF7 breast
# MDA-MB-231 breast = tested on: MDA-MB-231 breast
# MDA-MB-435 = tested on: MDA-MB-435
# MDA-N = tested on: MDA-N
# MOLT-4 leukemia = tested on: MOLT-4 leukemia
# NCI-H226 lung = tested on: NCI-H226 lung
# NCI-H23 lung = tested on: NCI-H23 lung
# NCI-H460 lung = tested on: NCI-H460 lung
# NCI-H522 lung = tested on: NCI-H522 lung
# NCI/ADR-RES ovarian = tested on: NCI/ADR-RES ovarian
# OVCAR-3 ovarian = tested on: OVCAR-3 ovarian
# OVCAR-4 ovarian = tested on: OVCAR-4 ovarian
# OVCAR-5 ovarian = tested on: OVCAR-5 ovarian
# OVCAR-8 ovarian = tested on: OVCAR-8 ovarian
# PC-3 prostate = tested on: PC-3 prostate
# RPMI-8226 leukemia = tested on: RPMI-8226 leukemia
# RXF 393 renal = tested on: RXF 393 renal
# SF-268 CNS = tested on: SF-268 CNS
# SF-295 CNS = tested on: SF-295 CNS
# SF-539 CNS = tested on: SF-539 CNS
# SK-MEL-2 melanoma = tested on: SK-MEL-2 melanoma
# SK-MEL-28 melanoma = tested on: SK-MEL-28 melanoma
# SK-MEL-5 melanoma = tested on: SK-MEL-5 melanoma
# SK-OV-3 ovarian = tested on: SK-OV-3 ovarian
# SN12C renal = tested on: SN12C renal
# SNB-19 CNS = tested on: SNB-19 CNS
# SNB-75 CNS = tested on: SNB-75 CNS
# SR leukemia = tested on: SR leukemia
# SW-620 colon = tested on: SW-620 colon
# T-47D breast = tested on: T-47D breast
# TK-10 renal = tested on: TK-10 renal
# U251 CNS = tested on: U251 CNS
# UACC-257 melanoma = tested on: UACC-257 melanoma
# UACC-62 melanoma = tested on: UACC-62 melanoma
# UO-31 renal = tested on: UO-31 renal
compound,measurement,setting,value
O=C1Cc2c(-c3ccccc3)cc(-c3cccc(Cl)c3)nc2-c2ccccc2N1,GI50,786-0 renal,0.977 µM
same,TGI,786-0 renal,2.42 µM
same,TGI,A498 renal,15.7 µM
same,TGI,A549 NSCLC,9.25 µM
same,GI50,ACHN renal,1.15 µM
same,TGI,ACHN renal,5.63 µM
same,TGI,BT-549 breast,22.1 µM
same,TGI,CAKI-1 renal,5.06 µM
same,TGI,CCRF-CEM leukemia,50.9 µM
same,TGI,COLO 205 colon,> 58.3 µM
same,TGI,DU-145 prostate,11.8 µM
same,TGI,EKVX NSCLC,12.6 µM
same,TGI,HCC-2998 colon,7.76 µM
same,TGI,HCT-116 colon,4.13 µM
same,TGI,HCT-15 colon,17.6 µM
same,TGI,HL-60(TB) leukemia,> 100 µM
same,TGI,HOP-62 NSCLC,4.12 µM
same,TGI,HOP-92 NSCLC,5.42 µM
same,TGI,HS 578T breast,9.85 µM
same,TGI,HT29 colon,5.17 µM
same,TGI,IGROV1 ovarian,6.45 µM
same,TGI,K-562 leukemia,> 40.3 µM
same,TGI,KM12 colon,> 75.3 µM
same,TGI,LOX IMVI melanoma,7.28 µM
same,TGI,M14 melanoma,> 63.9 µM
same,TGI,MALME-3M melanoma,13.3 µM
same,TGI,MCF7 breast,> 22.6 µM
same,TGI,MDA-MB-231 breast,5.49 µM
same,TGI,MDA-MB-435,> 59.9 µM
same,TGI,MDA-N,31.6 µM
same,TGI,MOLT-4 leukemia,> 90.4 µM
same,TGI,NCI-H226 lung,17.7 µM
same,TGI,NCI-H23 lung,16.8 µM
same,TGI,NCI-H460 lung,3.71 µM
same,TGI,NCI-H522 lung,5.1 µM
same,TGI,NCI/ADR-RES ovarian,7.46 µM
same,TGI,OVCAR-3 ovarian,6.84 µM
same,TGI,OVCAR-4 ovarian,5.71 µM
same,TGI,OVCAR-5 ovarian,30.3 µM
same,TGI,OVCAR-8 ovarian,5.4 µM
same,TGI,PC-3 prostate,23.2 µM
same,TGI,RPMI-8226 leukemia,> 93 µM
same,TGI,RXF 393 renal,6.28 µM
same,TGI,SF-268 CNS,14 µM
same,TGI,SF-295 CNS,28.6 µM
same,TGI,SF-539 CNS,> 29.9 µM
same,TGI,SK-MEL-2 melanoma,24.4 µM
same,TGI,SK-MEL-28 melanoma,25.8 µM
same,TGI,SK-MEL-5 melanoma,> 48.7 µM
same,TGI,SK-OV-3 ovarian,9.49 µM
same,TGI,SN12C renal,16.2 µM
same,TGI,SNB-19 CNS,3.59 µM
same,TGI,SNB-75 CNS,6.04 µM
same,TGI,SR leukemia,> 100 µM
same,TGI,SW-620 colon,> 100 µM
same,TGI,T-47D breast,6.01 µM
same,TGI,TK-10 renal,3.62 µM
same,TGI,U251 CNS,3.12 µM
same,TGI,UACC-257 melanoma,24.1 µM
same,TGI,UACC-62 melanoma,12.2 µM
same,TGI,UO-31 renal,11.2 µM
